From US9931324B2, “Indolizine derivatives and their use in neurodegenerative diseases” (Merck Patent GmbH, priority 2014, dated 2018)
pIC50: −log10 of the molar value.

Key:
P2X7 [1] = target: T1, P2X7 (Homo sapiens, UniProt Q99572); experiment: Pore permeation assay (YO PRO dye uptake, BzATP-induced); format: cell-based; design: expressed in transfected cells; host or cells: HEK293; details: HEK293 transfected with human P2X7 receptor, BzATP 10 uM, read-out: hP2X7 IC50
T1 sequence (Q99572 1-595): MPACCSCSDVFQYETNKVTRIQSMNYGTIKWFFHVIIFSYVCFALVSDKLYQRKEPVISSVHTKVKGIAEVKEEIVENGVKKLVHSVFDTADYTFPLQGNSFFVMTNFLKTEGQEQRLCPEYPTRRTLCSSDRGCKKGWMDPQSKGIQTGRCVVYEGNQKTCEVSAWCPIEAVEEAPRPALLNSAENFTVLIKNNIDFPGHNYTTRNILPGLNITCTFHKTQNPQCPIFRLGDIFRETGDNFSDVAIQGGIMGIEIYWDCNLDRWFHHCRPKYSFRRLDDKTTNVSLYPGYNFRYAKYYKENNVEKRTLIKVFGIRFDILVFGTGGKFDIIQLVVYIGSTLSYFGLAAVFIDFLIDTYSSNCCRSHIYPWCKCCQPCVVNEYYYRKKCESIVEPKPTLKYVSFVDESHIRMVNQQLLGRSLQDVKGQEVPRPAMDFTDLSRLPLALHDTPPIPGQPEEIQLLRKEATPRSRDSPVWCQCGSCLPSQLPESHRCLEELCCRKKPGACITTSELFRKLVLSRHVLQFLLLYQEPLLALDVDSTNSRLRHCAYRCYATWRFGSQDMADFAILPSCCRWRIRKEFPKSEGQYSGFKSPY
Experimental: Agonist-induced pore formation was determined by measuring cellular uptake of YO PRO fluorescence dye in HEK293 transfected with human P2X7 receptor. A HEK293 cell over expressing human P2X7 was harvested using HQTase reagent to detach the cells from T75 cm flask. The harvested cells are centrifuged @1200 rpm for 5 min at room temperature. The viability of cells was determined by Trypan blue dye and the cells are plated @10,000 cell/well in 50 ul volume in a 384W BD Poly lysine coated plate and incubated overnight at 37 C. After overnight incubation, the culture medium was replaced with 35 ul/well assay buffer (5 mM KCl, 0.1 mM CaCl2, 5 mM Glucose, 10 mM HEPES buffer pH7.4 containing 125 mM NaCl. The serial dilution of compounds was performed using Bravo liquid handling instrument and the compounds were added using Bravo to the cell assay plate starting at 2.5 uM with three dilutions for 10 points. The positive control inhibitor compound was added to column 23. The plate was shaken slowly on a plate shaker for 10 seconds. The cells were incubated with the compound for 20 minutes at room temperature. After the incubation period, YO PRO dye (1 uM) along with BzATP (10 uM) were added to cells at 10 ul/well. The plate was centrifuged at 1000 rpm for 5 seconds and incubated at room temperature for 30 minutes. The uptake of YO PRO dye into the cells was measured using Envision Fluorescence plate reader instrument (Perkin Elmer).

P2X7 [2] = target: T1, P2X7; experiment: IL-1β release assay in THP-1 cells (sandwich ELISA, BzATP-stimulated); format: cell-based; design: endogenous in cells; host or cells: THP-1 cells (PMA-differentiated, LPS-primed); details: LPS primed, 0.8 mM BzATP, mature IL-1β release, read-out: hTHP-1/IL-ib IC50
Experimental: IL-1β release assay: The activation of P2X7 by ATP leads to a fast transient activation of cells resulting in influx of Ca^2+ followed by conversion of pro-IL-1β to active IL-1β. The functional activity of P2X7 compounds was measured by the release of mature IL-1β in the culture medium of THP-1 cells, detected by sandwich ELISA. Cells were maintained in complete growth medium (RPMI 1640+10% HI-FCS+2 mM L-glutamine+1× PS). […] THP-1 cells were harvested from the flask in 50 ml by centrifugation for 3 min at 100 g. The cells were resuspended to 2×10^5 cells/ml in medium supplemented with 0.5 μM PMA and incubated. The cells were washed and resuspended to 1.5×10^5 cells/ml in medium complemented with 10 ng/ml LPS, and the cells were primed for 4 h at 37° C., 5% CO2. After addition of 20 μL of prediluted test compounds, blank, standard and control reagents, cells were incubated for a further 20 min at 37° C. and stimulated with 0.8 mM BzATP for 30 minutes. The cells were centrifuged, supernatant was collected and the presence of mature IL-1β was detected using Dual human IL-1b kit following manufacturer's instruction. The tetrahydrobenzodiazepine analogs effectively modulated the activity of P2X7 in the cells as measured by the levels of pro-inflammatory cytokine IL-1β, which is released by the activation of P2X7 receptor.

O=C(NCC1CCC(F)(F)CC1)c1cc(C2CCCO2)n2cccc(Cl)c12 (stereo not shown) [Compound 23, 8-Chloro-3-(tetrahydro-furan-2-yl)-indolizine-1-carboxylic Acid (4,4-difluoro-cyclohexyl methyl)-amide]
pIC50 (P2X7 [1]): 7.00 to 8.00
pIC50 (P2X7 [2]): 7.00 to 8.00

COCCc1cc(C(=O)NCC2(O)CCCC3(CC3)C2)c2c(Cl)cccn12 (stereo not shown) [Compound 29, 8-chloro-N-((5-hydroxyspiro[2.5]octan-5-yl)methyl)-3-(2-methoxyethyl) indolizine-1-carboxamide]
pIC50 (P2X7 [1]): 6.30 to 7.00
pIC50 (P2X7 [2]): 6.30 to 7.00

O=C(NCC1CCC(F)(F)CC1)c1cc(CC2CCOC2)n2cccc(Cl)c12 (stereo not shown) [Compound 30, 8-chloro-N-((4,4-difluorocyclo-hexyl)methyl)-3-((tetrahydrofuran-3-yl)methyl)indolizine-1-carboxamide]
pIC50 (P2X7 [1]): 7.00 to 8.00
pIC50 (P2X7 [2]): 6.30 to 7.00

COCCc1cc(C(=O)NCC2CCCC(F)(F)C2)c2c(Cl)cccn12 (stereo not shown) [Compound 31, 8-chloro-N-((3,3-difluorocyclohexyl)methyl)-3-(2-methoxyethyl)indolizine-1-carboxamide]
pIC50 (P2X7 [1]): 7.00 to 8.00
pIC50 (P2X7 [2]): 7.00 to 8.00

CC1CC(CNC(=O)c2cc(CCO)n3cccc(Cl)c23)CCC1(F)F (stereo not shown) [Compound 32, 8-chloro-N-((4,4-difluoro-3-methylcyclohexyl)methyl)-3-(2-hydroxyethyl) indolizine-1-carboxamide]
pIC50 (P2X7 [1]): > 8.00
pIC50 (P2X7 [2]): 7.00 to 8.00

COCCc1cc(C(=O)NCC2(O)CCCCCC2)c2c(Cl)cccn12 [Compound 35, 8-chloro-N-((1-hydroxycycloheptyl)methyl)-3-(2-methoxyethyl)indolizine-1-carboxamide]
pIC50 (P2X7 [1]): 7.00 to 8.00
pIC50 (P2X7 [2]): 7.00 to 8.00

CC1CC(CNC(=O)c2cc(CCO)n3cccc(Cl)c23)CC(F)(F)C1 (stereo not shown) [Compound 36, 8-chloro-N-((3,3-difluoro-5-methylcyclohexyl)methyl)-3-(2-hydroxyethyl)indolizine-1-carboxamide]
pIC50 (P2X7 [1]): 7.00 to 8.00
pIC50 (P2X7 [2]): 7.00 to 8.00

COCCc1cc(C(=O)NCC2CCC(F)(F)CC2)c2c(Cl)cccn12 [Compound 37, 8-chloro-N-((4,4-difluorocyclohexyl)methyl)-3-(2-methoxyethyl) indolizine-1-carboxamide]
pIC50 (P2X7 [1]): 7.00 to 8.00
pIC50 (P2X7 [2]): 7.00 to 8.00

O=C(NCC1CCCC(F)(F)C1)c1cc(C2CCOC2)n2cccc(Cl)c12 (stereo not shown) [Compound 39, 8-Chloro-3-(tetrahydro-furan-3-yl)-indolizine-1-carboxylic Acid (3,3-difluoro-cyclohexyl methyl)-amide]
pIC50 (P2X7 [1]): 7.00 to 8.00
pIC50 (P2X7 [2]): 6.30 to 7.00

O=C(NCC1CCC(F)(F)CC1)c1cc(C2CCOC2)n2cccc(Cl)c12 (stereo not shown) [Compound 40, 8-chloro-N-((4,4-difluorocyclohexyl)methyl)-3-(tetrahydro-furan-3-yl)indolizine-1-carboxamide]
pIC50 (P2X7 [1]): 7.00 to 8.00
pIC50 (P2X7 [2]): 7.00 to 8.00

CC1CC(O)(CNC(=O)c2cc(C3CCOCC3)n3cccc(Cl)c23)CCC1(F)F (stereo not shown) [Compound 41, 8-chloro-N-((4,4-difluoro-1-hydroxy-3-methylcyclohexyl)methyl)-3-(tetrahydro-2H-pyran-4-yl)indolizine-1-carboxamide]
pIC50 (P2X7 [1]): 6.30 to 7.00
pIC50 (P2X7 [2]): 7.00 to 8.00

COCCc1cc(C(=O)NCC2(O)CCC(F)(F)C(C)C2)c2c(Cl)cccn12 (stereo not shown) [Compound 43, 8-chloro-N-((4,4-difluoro-1-hydroxy-3-methylcyclohexyl)methyl)-3-(2-methoxyethyl)indolizine-1-carboxamide]
pIC50 (P2X7 [1]): 7.00 to 8.00
pIC50 (P2X7 [2]): 6.30 to 7.00

O=C(NCC1CCCC(F)(F)C1)c1cc(CCO)n2cccc(Cl)c12 (stereo not shown) [Compound 45, 8-chloro-N-((3,3-difluorocyclohexyl)methyl)-3-(2-hydroxyethyl)indolizine-1-carboxamide]
pIC50 (P2X7 [1]): 7.00 to 8.00
pIC50 (P2X7 [2]): 6.30 to 7.00

O=C(NCC1(O)CCC(F)(F)CC1)c1cc(CC2CCOC2)n2cccc(Cl)c12 (stereo not shown) [Compound 47, 8-chloro-N-((4,4-difluoro-1-hydroxycyclohexyl)methyl)-3-((tetrahydrofuran-3-yl)methyl)indolizine-1-carboxamide]
pIC50 (P2X7 [1]): 7.00 to 8.00
pIC50 (P2X7 [2]): 7.00 to 8.00
